Measurements published in publication PMC5617480 (Oncotarget, 2017).

Columns and labels:
Experiment in all cases: Cytotoxicity assay (MTT assay)
Type in all cases: cell-based, human
Hep-G2 cells = conditions: for Inhibitory rates (%): Hep-G2, 20 μM
Method: (§1) To evaluate the cytotoxicity of chiral platinum(II) complexes, HeLa, BEL-7402, MGC80-3, BEL-7404, A549, Hep-G2 and HL-7702 cells (normal cells) were treated with varying concentrations of complexes 1–6 and cisplatin (positive control, cisplatin was dissolved at a concentration of 1.0 mM in 0.154 M NaCl) for 24 h and 48 h. The cell viability of each experimental group was examined by MTT assays. […] [61, 62]. […] Therefore, complex 6 (10 μM) was selected for cell apoptosis analysis by flow-cytometry, RT-PCR, caspase-3/9 activation assays, western blot and transfection assays in BEL-7404 cells for 24 h. In addition, this observed difference in in vitro cytotoxicity between the three complexes 4–6 could be due to the influence of the chirality of the FOA ligand [68]. […]
(§2) Materials 100 U/mL penicillin and 100 μg/mL streptomycin in 25 cm2 culture flasks at 37 °C humidified atmosphere with Tris, RNase A, and propidium iodide (PI) were 5% CO2. All cells to be tested in the following assays have purchased from Sigma. The antibody of mutp53, a passage number of 3-6. […]
(§3) were purchased from Abcam. Unless otherwise stated, BEL-7404, A549, and Hep-G2 cancer-cell lines and HL-spectroscopic titration experiments were carried out in 7702 normal cells) per well were seeded in triplicate in TBS (10 mM pH7.35 Tris-HCl, containing 100 mM KCl). 96-well plates and incubated for 24 h at 37 °C and 5.0% The total RNA isolation kit and the two-step RT-PCR kit CO2/95.0% air. Then graded amounts of compound were purchased from TIANGEN. DNA oligomers (highly added to the wells in 10.0 μL of FBS free culture medium polymerized stored at 4 °C; long-term storage at −20 °C) and the plates were incubated in a 5% CO2 humidified are listed in Supplementary Table 1 and were obtained from atmosphere for 24 h and 48 h. Six replica wells were used Shanghai Sangon Biological Engineering Technology & as controls. Each the cells were grew for 12.0 h before Services (Shanghai, China). All tumor cell lines (HeLa, treatment to reach 70.0% confluency and 20.0 μL of tested BEL-7402, MGC80-3, BEL-7404, A549, Hep-G2 cancer- various concentrations of compounds were added to each cell lines and normal liver cell line HL-7702) were obtained well. The final concentration of the tested complexes from the Shanghai Institute for Biological Science (China). or compounds were kept at 1.25, 2.5, 5, 10, 20 μM, Stock solutions of all the compounds (2.0 mM) were made respectively. After 24 h or 48 h of culture, 0.1 mg of in DMSO, and further dilutions to working concentrations MTT (in 20 μL of PBS) was added to each well, and cells were made with corresponding buffer. were incubated at 37 °C for 6 h. The formed formazan crystals were then dissolved in 100 μL of DMSO and the Instrumentation absorbance was read by enzyme labeling instrument with Infrared spectra were obtained on a Perkine Elmer 490/630 nm double wavelength measurement. The final FT-IR Spectrometer. Elemental analyses (C, H, N) IC50 values were calculated by the Bliss method (n = 5). were carried out on a Perkin Elmer Series II CHNS/O All tests were repeated in at least three independent trials. […]
(§4) 10.0 min. The cell pellet obtained was dissolved in 1.0 M
(§5) The region between 200 and 400 nm was scanned for each NaOH (1.0 mL) and diluted with 2.0% (v/v) HNO3 (5.0 sample. MTT assay was performed on M1000 microplate mL) for determining whole cell Pt content. Another set reader (Tecan Trading Co. Ltd, Shanghai, China). Cell was treated similarly, nuclear proteins, nuclear fraction, cycle and apoptosis analysis was recorded on FACS Aria cytoplasmic protein, membrane proteins and other fraction II Flow Cytometer (BD Biocsiences, San Jose, USA). were isolated as described by Chen and Schreiber et al. And the each final solution was made up to 5.0 mL
(§6) Cytotoxicity assay (MTT assay) using 2.0% (v/v) HNO3. The amount of Pt taken up by the cells was determined by ICP-MS. The instrument was […]

BEL-7402 cells = conditions: for Inhibitory rates (%): BEL-7402, 20 μM
Method: as §1, §2, §3, §4, §5, §6

BEL-7404 cells = conditions: for Inhibitory rates (%): BEL-7404, 20 μM
Method: as §1, §2, §3, §4, §5, §6

A549 cells = conditions: for Inhibitory rates (%): A549, 20 μM
Method: as §1, §2, §3, §4, §5, §6

HeLa cells = conditions: for Inhibitory rates (%): 20 μM
Method: as §1, §2, §3, §4, §5, §6

MGC80-3 cells = conditions: for Inhibitory rates (%): MGC80-3, 20 μM
Method: as §1, §2, §3, §4, §5, §6

HL-7702 normal cells = conditions: for Inhibitory rates (%): HL-7702, 20 μM
Method: To evaluate the cytotoxicity of chiral platinum(II) complexes, HeLa, BEL-7402, MGC80-3, BEL-7404, A549, Hep-G2 and HL-7702 cells (normal cells) were treated with varying concentrations of complexes 1–6 and cisplatin (positive control, cisplatin was dissolved at a concentration of 1.0 mM in 0.154 M NaCl) for 24 h and 48 h. The cell viability of each experimental group was examined by MTT assays. […] [61, 62].
as §2, §3

| Molecule | Inhibitory rates (%) (Hep-G2 cells; 24 h) | Inhibitory rates (%) (Hep-G2 cells; 48 h) | IC50 (Hep-G2 cells; Hep-G2, 24 h) | Inhibitory rates (%) (BEL-7402 cells; 24 h) | Inhibitory rates (%) (BEL-7402 cells; 48 h) | IC50 (BEL-7402 cells; BEL-7402, 24 h) | Inhibitory rates (%) (BEL-7404 cells; 24 h) | Inhibitory rates (%) (BEL-7404 cells; 48 h) | IC50 (BEL-7404 cells; BEL-7404, 24 h) | Inhibitory rates (%) (A549 cells; 24 h) | Inhibitory rates (%) (A549 cells; 48 h) | IC50 (A549 cells; A549, 24 h) | Inhibitory rates (%) (HeLa cells; 24 h) | Inhibitory rates (%) (HeLa cells; 48 h) | IC50 (HeLa cells; 24 h) | Inhibitory rates (%) (MGC80-3 cells; 24 h) | Inhibitory rates (%) (MGC80-3 cells; 48 h) | IC50 (MGC80-3 cells; MGC80-3, 24 h) | selectivity index factor, IC50 (normal HL-7702 cells)/IC50 (BEL-7404 tumor cells) (HL-7702 normal cells; 24 h) | Inhibitory rates (%) (HL-7702 normal cells; 24 h) | other results |
| --- | --- | --- | --- | --- | --- | --- | --- | --- | --- | --- | --- | --- | --- | --- | --- | --- | --- | --- | --- | --- | --- |
| cis-[PtCl2(R/S-(±)-FOA)] [complex 4] | 20.8 ± 0.3% | 27.6 ± 1.1% | 84.6 ± 0.4 µM | 41.2 ± 0.6% | 48.6 ± 1.3% | 32.5 ± 0.5 µM | 67.3 ± 1.3% | 80.0 ± 4.3% | 12.5 ± 1.1 µM | 57.6 ± 0.6% | 77.8 ± 0.1% | 18.6 ± 0.5 µM | 18.5 ± 0.7% | 24.1 ± 2.1% | 90.5 ± 0.7 µM | 22.0 ± 1.9% | 24.9 ± 1.4% | 80.6 ± 2 µM | 6.8 | 28.3 ± 1.7% | IC50 (Hep-G2 cells; Hep-G2, 48 h): 29.1 ± 0.8 µM; IC50 (BEL-7402 cells; BEL-7402, 48 h): 20.7 ± 0.9 µM; IC50 (BEL-7404 cells; BEL-7404, 48 h): 8.7 ± 0.1 µM; IC50 (A549 cells; A549, 48 h): 9.1 ± 0.6 µM; IC50 (HeLa cells; 48 h): 38.1 ± 1.5 µM; IC50 (MGC80-3 cells; MGC80-3, 48 h): 32.1 ± 1.8 µM; selectivity index factor, IC50 (normal HL-7702 cells)/IC50 (BEL-7404 tumor cells) (HL-7702 normal cells; 48 h): 6.7; Inhibitory rates (%) (HL-7702 normal cells; 48 h): 31.6 ± 2.4%; IC50 (HL-7702 normal cells; HL-7702, 24 h): 85.4 ± 1.5 µM; IC50 (HL-7702 normal cells; HL-7702, 48 h): 58.5 ± 5.5 µM |
| O=C(NCC(O)CO)c1cnc2c3c(cccc13)-c1ccccc1C2=O.[Cl-].[Cl-].[Pt+2] (racemic) [ligand 1, R/S-(±)-FOA] | 21.3 ± 1.9% | 27.8 ± 0.8% | 73.5 ± 2 µM | 30.5 ± 1.4% | 38.9 ± 1.6% | 54.9 ± 1.2 µM | 35.9 ± 0.7% | 51.9 ± 2.7% | 41.2 ± 0.6 µM | 32.6 ± 0.4% | 48.4 ± 1.6% | 45.8 ± 0.3 µM | 25.6± 1.2% | 33.6 ± 1.3% | 69.3 ± 1.3 µM | 18.6 ± 0.3% | 24.9 ± 2.2% | 87.2 ± 0.5 µM | 3.4 | 11.0 ± 1.6% | Inhibitory rates (%) (HL-7702 normal cells; 48 h): 15.2 ± 0.6%; IC50 (HL-7702 normal cells; HL-7702, 24 h): 141 ± 1.7 µM |
